From US7491704B2, “Compounds for enzyme inhibition” (Proteolix, Inc., priority 2004, dated 2009)
pIC50: −log10 of the molar value.

What was measured:
[1] = molecular target: 20S proteasome chymotrypsin-like activity (CT-L) (Homo sapiens, UniProt P20618+P28074); test: 20S proteasome chymotrypsin-like (CT-L) activity inhibition; assay type: biochemical
Description: The enzyme inhibitor analogs and prodrugs disclosed herein are useful in part because they inhibit the action of the 20S proteasome. […] That is, the instant compounds show selectivities for the 20S proteasome over other proteases such as cathepsins, calpains, papain, chymotrypsin, trypsin, tripeptidyl pepsidase II. The selectivities of the enzyme inhibitors for 20S proteasome are such that at concentrations below about 50 μM, the enzyme inhibitors show inhibition of the catalytic activity of the 20S proteasome, while not showing inhibition of the catalytic activity of other proteases such as cathepsins, calpains, papain, chymotrypsin, trypsin, tripeptidyl pepsidase II. In preferred embodiments, the enzyme inhibitors show inhibition of the catalytic activity of the 20S proteasome at concentrations below about 10 μM, while not showing inhibition of the catalytic activity of other proteases at these concentrations. […]
The chymotrypsin-like activity of 20S proteasome is characterized by cleavage of peptides in the immediate vicinity of large hydrophobic residues. In particular, the chymotrypsin-like activity of Ntn hydrolases can be determined by cleavage of a standard substrate. […]

[2] = molecular target: T1, proteasome chymotrypsin-like activity (CT-L), cell-based (Homo sapiens, UniProt P28074); test: Cell-based CT-L activity inhibition
T1 construct: endogenous in cells
T1 sequence (P28074 60-263): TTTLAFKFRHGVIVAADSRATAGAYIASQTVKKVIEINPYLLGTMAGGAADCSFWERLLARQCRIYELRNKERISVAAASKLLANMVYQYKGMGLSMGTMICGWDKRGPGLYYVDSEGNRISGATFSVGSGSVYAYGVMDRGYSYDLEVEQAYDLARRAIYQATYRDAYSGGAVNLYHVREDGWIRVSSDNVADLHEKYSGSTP

CC(C)CC(NC(=O)C(CCc1ccccc1)NC(=O)CN(C)C)C(=O)NC(Cc1ccccc1)C(=O)NC(CC(C)C)C(=O)C1(C)CO1 (centres unmarked) [compound 3]
pIC50 [1]: > 7.00
pIC50 [2]: > 7.00
